Reference: PMC5062114, “Dual-targeting anti-angiogenic cyclic peptides as potential drug leads for cancer therapy” (Scientific Reports, 2016)
Bridge positions count the residues as written; N and C are the ends. Square brackets hold non-standard residues; d marks the D form. Peptide text beside a SMILES is read from it.

Tests used:
Test in all cases: cells
[1] = system: HUVEC; conditions: read-out: IC50 ± S.D.; 48 hours, HUVEC; cell proliferation inhibition, MTT, 48-h incubation, 1.5 × 10^3 cells/well, triplicate, mean ± SD
Description: (§1) HUVECs (human umbilical vein endothelial cells) were cultured in EGM™-2 BulletKit™ supplemented with SingleQuots™ (supplements: growth factors, cytokines, antibiotics; Lonza) and 10% FBS (catalog no. FFBS-500; Scientifix). Both HT-29 and MCF-7 cells were cultured in 10% FBS/DMEM (Dulbecco’s Modified Eagle Medium) with 1% penicillin–streptomycin (5000 U/mL; Life Technologies), whereas PC3 cells (prostate cancer cells) were cultured in 10% FBS/RPMI (Roswell Park Memorial Institute) 1640 with 1% penicillin–streptomycin (5000 U/mL; Life Technologies). All cells were maintained at 37 °C in 5% CO2.
(§2) Cell cytotoxicity and proliferation assays were performed using similar methods to those described by Chan et al.[45]. All cells were maintained using the media conditions described above, and passages two to ten were used for all cell lines. For all cell lines, 5.0 × 10^3 cells/well (100 μL) and 1.5 × 10^3 cells/well (100 μL) were used for cell cytotoxicity and cell proliferation assays, respectively. All peptides (10 μL, at final concentrations ranging from 0.05–100 μM) and drugs, which included cilengitide, octreotide and sunitinib (at final concentrations ranging from 0.00001–100 μM), were used in both assays. Triton X-100 (0.1% (v/v); 10 μL) was used as a positive control. Cells were treated with fresh media the day after plating, before the addition of peptides, followed by a subsequent 2-h and 48-h incubation for cell cytotoxicity and cell proliferation, respectively. After different incubation periods, 3-(4, 5-dimethylthiazolyl-2)-2,5-diphenyltetrazolium bromide (MTT) (10 μL; 5 mg/mL in PBS) was added, and cells were incubated for a further 4 h. The supernatant was then removed and 100 μL DMSO added to solubilize formazan salts. Experiments were performed in triplicate. Cell numbers were recorded at 600 nm. All data represent average mean ± SD.

[2] = system: MCF-7; conditions: read-out: IC50 ± S.D.; 48 hours, MCF-7; cell proliferation inhibition, MTT, 48-h incubation, 1.5 × 10^3 cells/well, triplicate, mean ± SD
Description: as §1, §2

[3] = system: HT-29; conditions: read-out: IC50 ± S.D.; 48 hours, HT-29; cell proliferation inhibition, MTT, 48-h incubation, 1.5 × 10^3 cells/well, triplicate, mean ± SD
Description: as §1, §2

[4] = system: PC3; conditions: read-out: IC50 ± S.D.; 48 hours, PC3; cell proliferation inhibition, MTT, 48-h incubation, 1.5 × 10^3 cells/well, triplicate, mean ± SD
Description: as §1, §2

Row | Structure (SMILES) | IC50 [1] [µM] | IC50 [2] [µM] | IC50 [3] [µM] | IC50 [4] [µM]
1 | CC[C@H](C)[C@@H]1NC(=O)[C@@H]2CSSC[C@@H]3NC(=O)[C@H](Cc4ccccc4)NC(=O)[C@@H]4CCCN4C(=O)[C@H](CCC(N)=O)NC(=O)[C@H](CC(N)=O)NC(=O)[C@H](CC(C)C)NC(=O)[C@H](Cc4c[nH]cn4)NC(=O)[C@H](Cc4ccc(O)cc4)NC(=O)[C@@H]4CSSC[C@H](NC(=O)[C@H](CC(=O)O)NC(=O)[C@H](CO)NC(=O)[C@H](CC(=O)O)NC(=O)[C@H](CCCNC(=N)N)NC(=O)[C@H](CCCNC(=N)N)NC(=O)[C@H](CSSC[C@H](NC1=O)C(=O)N[C@@H](CCCNC(=N)N)C(=O)NCC(=O)N[C@@H](CC(N)=O)C(=O)NCC(=O)N[C@@H](Cc1ccc(O)cc1)C(=O)N4)NC(=O)[C@H](CCCCN)NC(=O)[C@H](CCCCN)NC(=O)[C@H](CC(C)C)NC(=O)[C@H]([C@@H](C)CC)NC(=O)[C@H](CCCCN)NC(=O)[C@@H]1CCCN1C3=O)C(=O)N1CCC[C@H]1C(=O)NCC(=O)N[C@@H](C)C(=O)N2 [MCo-PEDF] (cyclo(ACICRGNGYCYHLNQPFCPKILKKCRRDSDCPG); disulfide 2-18, 4-25, 10-31) | 50.16 ± 0.15 | 53.44 ± 0.14 | 35.22 ± 0.08 | 39.11 ± 0.07
2 | CC[C@H](C)[C@@H]1NC(=O)[C@@H]2CSSC[C@@H]3NC(=O)[C@H](Cc4c[nH]c5ccccc45)NC(=O)[C@H]([C@@H](C)O)NC(=O)[C@H](CCCCN)NC(=O)[C@@H](Cc4c[nH]c5ccccc45)NC(=O)[C@H](Cc4ccccc4)NC(=O)[C@H](CCCNC(=N)N)NC(=O)[C@@H]4CSSC[C@H](NC(=O)[C@H](CC(=O)O)NC(=O)[C@H](CO)NC(=O)[C@H](CC(=O)O)NC(=O)[C@H](CCCNC(=N)N)NC(=O)[C@H](CCCNC(=N)N)NC(=O)[C@H](CSSC[C@H](NC1=O)C(=O)N[C@@H](CCCNC(=N)N)C(=O)NCC(=O)N[C@@H](CC(N)=O)C(=O)NCC(=O)N[C@@H](Cc1ccc(O)cc1)C(=O)N4)NC(=O)[C@H](CCCCN)NC(=O)[C@H](CCCCN)NC(=O)[C@H](CC(C)C)NC(=O)[C@H]([C@@H](C)CC)NC(=O)[C@H](CCCCN)NC(=O)[C@@H]1CCCN1C3=O)C(=O)N1CCC[C@H]1C(=O)NCC(=O)N[C@@H](C)C(=O)N2 [MCo-SST-02] (cyclo(ACICRGNGYCRF[dW]KTWCPKILKKCRRDSDCPG); disulfide 2-17, 4-24, 10-30) | > 100 | 70.61 ± 0.11 | 58.89 ± 0.09 | 83.55 ± 0.2
3 | CC[C@H](C)[C@@H]1NC(=O)[C@@H]2CSSC[C@@H]3NC(=O)[C@H](C(C)C)NC(=O)CNC(=O)CNC(=O)[C@H](CC(=O)O)NC(=O)[C@H](CO)NC(=O)CNC(=O)[C@H](CO)NC(=O)CNC(=O)[C@@H]4CSSC[C@H](NC(=O)[C@H](CC(=O)O)NC(=O)[C@H](CO)NC(=O)[C@H](CC(=O)O)NC(=O)[C@H](CCCNC(=N)N)NC(=O)[C@H](CCCNC(=N)N)NC(=O)[C@H](CSSC[C@H](NC1=O)C(=O)N[C@@H](CCCNC(=N)N)C(=O)NCC(=O)N[C@@H](CC(N)=O)C(=O)NCC(=O)N[C@@H](Cc1ccc(O)cc1)C(=O)N4)NC(=O)[C@H](CCCNC(=N)N)NC(=O)[C@H](CCCNC(=N)N)NC(=O)[C@H](CCCNC(=N)N)NC(=O)[C@H](CCCCN)NC(=O)[C@H](CCCNC(=N)N)NC(=O)[C@H](CCCNC(=N)N)NC3=O)C(=O)N1CCC[C@H]1C(=O)NCC(=O)N[C@@H](C)C(=O)N2 [MCo-polyR-L1] (cyclo(ACICRGNGYCGSGSDGGVCRRKRRRCRRDSDCPG); disulfide 2-19, 4-26, 10-32) | > 100 | > 100 | > 100 | > 100
4 | CC[C@H](C)[C@@H]1NC(=O)[C@@H]2CSSC[C@@H]3NC(=O)CNC(=O)[C@H](CCCNC(=N)N)NC(=O)[C@H](CCCNC(=N)N)NC(=O)[C@H](CCCNC(=N)N)NC(=O)[C@H](CCCCN)NC(=O)[C@H](CCCNC(=N)N)NC(=O)[C@H](CCCNC(=N)N)NC(=O)CNC(=O)[C@@H]4CSSC[C@H](NC(=O)[C@H](CC(=O)O)NC(=O)[C@H](CO)NC(=O)[C@H](CC(=O)O)NC(=O)[C@H](CCCNC(=N)N)NC(=O)[C@H](CCCNC(=N)N)NC(=O)[C@H](CSSC[C@H](NC1=O)C(=O)N[C@@H](CCCNC(=N)N)C(=O)NCC(=O)N[C@@H](CC(N)=O)C(=O)NCC(=O)N[C@@H](Cc1ccc(O)cc1)C(=O)N4)NC(=O)[C@H](CCCCN)NC(=O)[C@H](CCCCN)NC(=O)[C@H](CC(C)C)NC(=O)[C@H]([C@@H](C)CC)NC(=O)[C@H](CCCCN)NC(=O)[C@@H]1CCCN1C3=O)C(=O)N1CCC[C@H]1C(=O)NCC(=O)N[C@@H](C)C(=O)N2 [MCo-polyR-L6] (cyclo(ACICRGNGYCGRRKRRRGCPKILKKCRRDSDCPG); disulfide 2-19, 4-26, 10-32) | 34.95 ± 0.03 | > 100 | 52.89 ± 0.11 | > 100
5 | CC[C@H](C)[C@@H]1NC(=O)[C@@H]2CSSC[C@@H]3NC(=O)[C@H](C(C)C)NC(=O)CNC(=O)CNC(=O)[C@H](CC(=O)O)NC(=O)[C@H](CO)NC(=O)CNC(=O)[C@H](CO)NC(=O)CNC(=O)[C@@H]4CSSC[C@H](NC(=O)[C@H](CC(=O)O)NC(=O)[C@H](CO)NC(=O)[C@H](CC(=O)O)NC(=O)[C@H](CCCNC(=N)N)NC(=O)[C@H](CCCNC(=N)N)NC(=O)[C@H](CSSC[C@H](NC1=O)C(=O)N[C@@H](CCCNC(=N)N)C(=O)N[C@@H](Cc1ccc(O)cc1)C(=O)N[C@H](Cc1c[nH]c5ccccc15)C(=O)N[C@@H](CCCCN)C(=O)N[C@@H](C(C)C)C(=O)N4)NC(=O)CNC(=O)[C@H](CCCNC(=N)N)NC(=O)[C@H](CCCNC(=N)N)NC(=O)[C@H](CCCNC(=N)N)NC(=O)[C@H](CCCCN)NC(=O)[C@H](CCCNC(=N)N)NC(=O)[C@H](CCCNC(=N)N)NC(=O)CNC3=O)C(=O)N1CCC[C@H]1C(=O)NCC(=O)N[C@@H](C)C(=O)N2 [MCoAA-01] (cyclo(ACICRY[dW]KVCGSGSDGGVCGRRKRRRGCRRDSDCPG); disulfide 2-19, 4-28, 10-34) | 10.83 ± 0.09 | 45.01 ± 0.16 | 40.12 ± 0.13 | > 100
6 | CC[C@H](C)[C@@H]1NC(=O)[C@@H]2CCCN2C(=O)[C@@H]2CCCN2C(=O)[C@H]([C@@H](C)CC)NC(=O)[C@H](CO)NC(=O)[C@H](CCCCN)NC(=O)[C@H]([C@@H](C)O)NC(=O)[C@@H]2CSSC[C@H](NC1=O)C(=O)N[C@@H](Cc1ccccc1)C(=O)N1CCC[C@H]1C(=O)N[C@@H](CC(=O)O)C(=O)NCC(=O)N[C@@H](CCCNC(=N)N)C(=O)N2 [SFTI-1, sunflower trypsin inhibitor-1, reference compound] | > 100 | > 100 | > 100 | > 100
7 | CC[C@H](C)[C@@H]1NC(=O)[C@@H]2CCCN2C(=O)[C@@H]2CCCN2C(=O)[C@H]([C@@H](C)CC)NC(=O)[C@H](CO)NC(=O)[C@H](CCCCN)NC(=O)[C@H]([C@@H](C)O)NC(=O)[C@@H]2CSSC[C@H](NC1=O)C(=O)N[C@@H](Cc1ccc(O)cc1)C(=O)N[C@@H](Cc1c[nH]cn1)C(=O)N[C@@H](CC(C)C)C(=O)N[C@@H](CC(N)=O)C(=O)N[C@@H](CCC(N)=O)C(=O)N1CCC[C@H]1C(=O)N[C@@H](Cc1ccccc1)C(=O)N2 [SFTI-PEDF] (cyclo(CTKSIPPICYHLNQPF); disulfide 1-9) | 27.89 ± 0.11 | > 100 | > 100 | > 100
8 | CC[C@H](C)[C@@H]1NC(=O)[C@@H]2CCCN2C(=O)[C@@H]2CCCN2C(=O)[C@H]([C@@H](C)CC)NC(=O)[C@H](CO)NC(=O)[C@H](CCCCN)NC(=O)[C@H]([C@@H](C)O)NC(=O)[C@@H]2CSSC[C@H](NC1=O)C(=O)N[C@@H](Cc1ccc(O)cc1)C(=O)N[C@H](Cc1c[nH]c3ccccc13)C(=O)N[C@@H](CCCCN)C(=O)N[C@@H](C(C)C)C(=O)N2 [SFTI-SST-01] (cyclo(CTKSIPPICY[dW]KV); disulfide 1-9) | 18.32 ± 0.05 | 46.07 ± 0.05 | 45.38 ± 0.03 | > 100
